Laboratory results from ChEMBL document CHEMBL5678800 (Mol Cancer Ther, 2009).
The source made the active and inactive calls. No cut-off for these calls is given here.

Tests used:
GEO [1] = test: Antitumor activity against human GEO cells xenografted in nude mouse assessed as tumor growth delay time at 25 mg/kg, po administered for 17 days relative to control; assay type: functional; details: time 17 day
GEO [2] = test: Antitumor activity against human GEO cells xenografted in nude mouse assessed as tumor growth delay time at 6.25 mg/kg, po administered for 17 days relative to control; assay type: functional; details: time 17 day
Mus musculus [3] = test: Anti-diabetic activity against nude mouse xenografted with mouse IGF-1R-Sal cells assessed as insulin level at 25 mg/kg, po administered for 2 hrs by ELISA analysis (Rvb= 0.39 +/- […]); assay type: functional
[4] = Toxicity in nude mouse xenografted with human GEO cells assessed as mortality at 6.25 mg/kg, po administered for 3 days in presence of cetuximab at 0.25 mg/kg relative to control; assay type: organism-based; details: in vivo, time 3 day
Rh41 [5] = test: Induction of cell cycle arrest in human Rh41 cells assessed as accumulation of cells at G2/M phase at 10x IC50 incubated for 48 hrs by propidium iodide staining based flow cytometry analysis relative to control; assay type: functional
[6] = Toxicity in nude mouse xenografted with human GEO cells assessed as mortality at 25 mg/kg, po administered for 3 days in presence of cetuximab at 0.25 mg/kg relative to control; assay type: organism-based; details: in vivo, time 3 day
[7] = Toxicity in nude mouse xenografted with human GEO cells assessed as mortality at 12.5 mg/kg, po administered for 3 days in presence of cetuximab at 0.25 mg/kg relative to control; assay type: organism-based; details: in vivo, time 3 day
GEO [8] = test: Antitumor activity against human GEO cells xenografted in nude mouse assessed as tumor growth delay time at 25 mg/kg, po administered for 3 days in presence of cetuximab at 0.25 mg/kg relative to control; assay type: functional; details: time 3 day
GEO [9] = test: Antitumor activity against human GEO cells xenografted in nude mouse assessed as tumor growth inhibition at 25 mg/kg, po administered for 17 days relative to control; assay type: functional; details: 408 h, time 17 day, read-out: TGI
GEO [10] = test: Antitumor activity against human GEO cells xenografted in nude mouse assessed as tumor growth delay time at 6.25 mg/kg, po administered for 3 days in presence of cetuximab at 0.25 mg/kg relative to control; assay type: functional; details: time 3 day
Rh41 [11] = test: Antitumor activity against human Rh41 cells xenografted in nude mouse assessed as tumor growth inhibition at 12 to 50 mg/kg, po administered for 21 days relative to control; assay type: functional; details: dose 12-50 mg/kg, time 21 day
[12] = Antitumor activity against mouse IGF-1R-Sal cells xenografted in nude mouse assessed as tumor growth inhibition at 3.1 to 12.5 mg/kg, po administered for 4 days relative to control; assay type: functional; details: dose 3.1-12.5 mg/kg, time 4 day
GTL 16 cell line = test: Antiproliferative activity against human GTL 16 cell line assessed as inhibition of cell viability incubated for 72 hrs by 3H-thymidine incorporation assay; assay type: functional, cell-based
[13] = Toxicity in nude mouse xenografted with human GEO cells assessed as mortality at 25 mg/kg, po administered for 3 days in presence of cetuximab at 0.125 mg/kg relative to control; assay type: organism-based; details: in vivo, time 3 day
Mus musculus [14] = test: Anti-diabetic activity against nude mouse xenografted with mouse IGF-1R-Sal cells assessed as increased serum glucose level at 25 mg/kg, po administered for 2 hrs by oral glucose tolerance test (Rvb= 97.40 +/- 5.0 mg/dl); assay type: functional
[15] = Toxicity in nude mouse xenografted with human GEO cells assessed as mortality at 12.5 mg/kg, po administered for 3 days in presence of cetuximab at 0.125 mg/kg relative to control; assay type: organism-based; details: in vivo, time 3 day
[16] = Toxicity in nude mouse xenografted with human GEO cells assessed as body weight loss at 12.5 mg/kg, po administered for 3 days in presence of cetuximab at 0.25 mg/kg relative to control; assay type: organism-based; details: in vivo, 72 h, time 3 day
[17] = Toxicity in nude mouse xenografted with human GEO cells assessed as body weight loss at 25 mg/kg, po administered for 17 days; assay type: organism-based; details: in vivo, 408 h, time 17 day
GEO [18] = test: Antitumor activity against human GEO cells xenografted in nude mouse assessed as tumor growth delay time at 6.25 mg/kg, po administered for 3 days in presence of cetuximab at 0.125 mg/kg relative to control; assay type: functional; details: time 3 day
GEO [19] = test: Antitumor activity against human GEO cells xenografted in nude mouse assessed as tumor growth delay time at 25 mg/kg, po administered for 3 days in presence of cetuximab at 0.125 mg/kg relative to control; assay type: functional; details: time 3 day
GEO [20] = test: Antitumor activity against human GEO cells xenografted in nude mouse assessed as tumor growth inhibition at 6.25 mg/kg, po administered for 17 days relative to control; assay type: functional; details: 408 h, time 17 day, read-out: TGI
GEO [21] = test: Antitumor activity against human GEO cells xenografted in nude mouse assessed as tumor growth inhibition at 25 mg/kg, po administered for 14 days relative to control; assay type: functional; details: 336 h, time 14 day, read-out: TGI
GEO [22] = test: Antitumor activity against human GEO cells xenografted in nude mouse assessed as tumor growth delay time at 12.5 mg/kg, po administered for 17 days relative to control; assay type: functional; details: time 17 day
[23] = Toxicity in nude mouse xenografted with human GEO cells assessed as body weight loss at 6.25 mg/kg, po administered for 17 days; assay type: organism-based; details: in vivo, 408 h, time 17 day
[24] = Toxicity in nude mouse xenografted with human GEO cells assessed as body weight loss at 12.5 mg/kg, po administered for 3 days in presence of cetuximab at 0.125 mg/kg relative to control; assay type: organism-based; details: in vivo, 72 h, time 3 day
GEO [25] = test: Antitumor activity against human GEO cells xenografted in nude mouse assessed as tumor growth inhibition at 25 mg/kg, po administered for 3 days in presence of cetuximab at 0.125 mg/kg relative to control; assay type: functional; details: 72 h, time 3 day, read-out: TGI
GEO [26] = test: Antitumor activity against human GEO cells xenografted in nude mouse assessed as tumor growth inhibition at 6.25 mg/kg, po administered for 3 days in presence of cetuximab at 0.125 mg/kg relative to control; assay type: functional; details: 72 h, time 3 day, read-out: TGI
Mus musculus [27] = test: Anti-diabetic activity against nude mouse xenografted with mouse IGF-1R-Sal cells assessed as insulin level at 12.5 mg/kg, po administered for 2 hrs by ELISA analysis (Rvb= 0.39 +/- […]); assay type: functional
[28] = target: Protein kinase C alpha type (Homo sapiens, UniProt P17252); test: Inhibition of recombinant PKCalpha (unknown origin) incubated for 60 mins in presence of ATP by electrophoretic caliper fluorescence analysis
IGF-1R-Sal = test: In vivo inhibition of IGF-1R phosphorylation in mouse IGF-1R-Sal cells xenografted in nude mouse at 12.5 mg/kg, po administered for 8 to 24 hrs by Western blotting analysis; assay type: functional, organism-based; details: time lower 8.0 hrs, time upper […]
GEO [29] = test: Antitumor activity against human GEO cells xenografted in nude mouse assessed as tumor growth inhibition at 25-50 mg/kg, po administered for 14 days relative to control; assay type: functional; details: 336 h, time 14 day, read-out: TGI
Rh41 [30] = test: Induction of cell cycle arrest in human Rh41 cells assessed as accumulation of cells at G2/M phase by measuring >4N DNA content at 10x IC50 incubated for 24 hrs by propidium iodide staining based flow cytometry analysis; assay type: functional
GEO [31] = test: Antitumor activity against human GEO cells xenografted in nude mouse assessed as tumor growth inhibition at 12.5 mg/kg, po administered for 17 days relative to control; assay type: functional; details: 408 h, time 17 day, read-out: TGI

`C[C@@]1(C(=O)Nc2ccc(F)nc2)CCCN1c1nc(Nc2cc(C3CC3)n[nH]2)c2cccn2n1` [BMS-754807] showed a Time (GEO [1]) of 7 days, a Time (GEO [2]) of 3 days and an Activity (Mus musculus [3]) of 17.2 ng/mL. It also gave a mortality at 72 h [4] of 0%, an Activity (Rh41 [5]) of 2.8% and a mortality at 72 h [6] of 0%. For the same molecule, the mortality at 72 h [7] was 0%, the Time (GEO [8]) was 24 days and the inhibition in vivo at 25 mg/kg (GEO [9]) was 61%. The Time (GEO [10]) was 23 days, the TGI (Rh41 [11]) was 45% and the TGI [12] was 80%. It also gave an IC50 (GTL 16 cell line) of 200 nM, a mortality at 72 h [13] of 0% and an Activity (Mus musculus [14]) of 95 mg/dL. It also gave a mortality at 72 h [15] of 0%, an Activity [16] of 1.2 g and an Activity [17] of -1.5 g. For the same molecule, the Time (GEO [18]) was 20 days, the Time (GEO [19]) was 21 days and the inhibition in vivo at 6.25 mg/kg (GEO [20]) was 24%. It also gave an inhibition in vivo at 25 mg/kg (GEO [21]) of 56%, a Time (GEO [22]) of 4 days and an Activity [23] of -0.4 g. For the same molecule, the Activity [24] was 0.4 g, the inhibition in vivo at 25 mg/kg (GEO [25]) was 89% and the inhibition in vivo at 6.25 mg/kg (GEO [26]) was 79%. For the same molecule, the Activity (Mus musculus [27]) was 5.1 ng/mL, the IC50 [28] was 2530 nM and the inhibition (IGF-1R-Sal) was “Active”. The inhibition in vivo at 50 mg/kg (GEO [29]) was 41%, the Activity (Rh41 [30]) was “Active” and the inhibition in vivo at 12.5 mg/kg (GEO [31]) was 38%.
